The values below come from patent US4015974A, “Amido phosphorothiolates” (priority 1972, dated 1977).

Common to all, as to format: in vivo
Data set [1] deals with broad-leaved weeds, e.g., monochoria, false pimpernel and toothcup. In words: Water application, herbicidal effect on broad-leaved weeds (Table 2). The arrangement: key: 0: not damaged; 5: completely killed. The conditions noted are these: 25 days, score 0-5. An outline of the steps: (§1)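 Paddy-soil pots flooded to paddy conditions; rice transplanted at 3-leaf stage, barnyard grass sown, broad-leaved weeds germinating spontaneously. Test compounds applied as wettable powder to soil under flooded water. Herbicidal effect and rice phytotoxicity scored 0–5 at 25 days after application.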

The subject of data set [2] is radish. Briefly: Pre-emergence application, herbicidal effect on radish (Table 1). The arrangement: key: 0: not damaged; 5: completely killed. The settings on record: 20 days after application, score 0-5. An outline of the steps: (§2)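 Soil treatment after sowing, pre-emergence; wettable powder formulations diluted with water. Greenhouse, 20 d. Score 0 = no damage, 5 = complete kill.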

The subject of data set [3] is barnyard grass (Echinochloa crus-galli). In words: Water application, herbicidal effect on barnyard grass (Table 2). The arrangement: key: 0: not damaged; 5: completely killed. The settings on record: 25 days, score 0-5. An outline of the steps:
as §1

Data set [4] deals with nematode. In words: Effect on nematode (Table 7). The settings on record: 500 p.p.m., 24 hours. Details: tested at 500 ppm. The protocol: 0.5 ml. of a nematode-containing aqueous solution separated from food according to Baermann's method was placed in a test tube with ground stopper containing 0.5 ml. of an aqueous dilute solution of each emulsifiable concentrates of the present compounds. The concentration of the active ingredient in the mixture was adjusted to 500 p.p.m. After 24 hours, the death and alive were observed microscopically to calculate the mortality.

Data set [5] has as its system common lambsquarter (Chenopodium album). In words: Pre-emergence application, herbicidal effect on common lambsquarter (Table 1). The arrangement: key: 0: not damaged; 5: completely killed. The settings on record: 20 days after application, score 0-5. An outline of the steps: as §2
In data set [6] the test system is redroot pigweed (Amaranthus retroflexus). Briefly: Pre-emergence application, herbicidal effect on redroot pigweed (Table 1). Details: key: 0: not damaged; 5: completely killed. The settings on record: 20 days after application, score 0-5. An outline of the steps:
as §2

Data set [7] deals with large crabgrass (Digitaria sanguinalis). Briefly: Pre-emergence application, herbicidal effect on large crabgrass (Table 1). Details: key: 0: not damaged; 5: completely killed. The settings on record: 20 days after application, score 0-5. An outline of the steps:
as §2

The test system of data set [8] is barnyard grass (Echinochloa crus-galli). In words: Pre-emergence application, herbicidal effect on barnyard grass (Table 1). The conditions noted are these: 20 days after application, score 0-5. The arrangement: key: 0: not damaged; 5: completely killed. An outline of the steps: as §2
Data set [9] concerns rice. Briefly: Water application, phytotoxicity on rice (Table 2). The arrangement: key: 0: no effect; 1: very slightly affected; 2: slightly affected; 3: moderately affected; 4: considerably affected; 5: completely killed. The settings on record: 25 days, score 0-5. In outline: as §1
For data set [10], the system named is common purslane (Portulaca oleracea). In words: Pre-emergence application, herbicidal effect on common purslane (Table 1). The arrangement: key: 0: not damaged; 5: completely killed. The settings on record: 20 days after application, score 0-5. In outline:
as §2

Turning to `CCCSP(=O)(OCC)SCC(=O)N1CCC(C)CC1` (centres unmarked) [Compound 12], the “Herbicidal effects, broad-leaved weeds” value in data set [1] (10 g/a), in [1] (20 g/a) and in data set [1] (40 g/a) was 5 in each case. Also, the “Herbicidal effect, radish” value in data set [2] (10 g./a.), in [2] (20 g./a.) and in data set [2] (40 g./a.) was 0 throughout. In addition, the “Herbicidal effects, barnyard grass” value in data set [3] (10 g/a), in data set [3] (20 g/a) and in data set [3] (40 g/a) was 5 in each case. Moreover, in [4], the Mortality worked out at 100%. The “Herbicidal effect, common lambsquarter” value in data set [5] (10 g./a.), in data set [5] (20 g./a.) and in data set [5] (40 g./a.) was 5 each time. Moreover, the figures for the “Herbicidal effect, redroot pigweed” value in data set [6] (10 g./a.), in data set [6] (20 g./a.) and in data set [6] (40 g./a.) were 4, 5 and 5, respectively. Moreover, the “Herbicidal effect, large crabgrass” value in data set [7] (10 g./a.), in [7] (20 g./a.) and in [7] (40 g./a.) was 5 in each case. The “Herbicidal effect, barnyard grass” value in data set [8] (10 g./a.), in data set [8] (20 g./a.) and in data set [8] (40 g./a.) was 5 in each case. The Phytotoxicity on rice in data set [9] (10 g/a), in [9] (20 g/a) and in data set [9] (40 g/a) was 0 in each case. The “Herbicidal effect, common purslane” value in data set [10] (10 g./a.), in [10] (20 g./a.) and in data set [10] (40 g./a.) was 5 throughout.

In the case of `CCOP(=O)(SCC(=O)N1CCCC(C)C1)SCC(C)C` (centres unmarked) [Compound 28], in data set [4], the Mortality was 100%.

Compound `C#CCSP(=O)(OCC)SCC(=O)N1CCCCC1C` (centres unmarked) [Compound 33] showed a Mortality in data set [4] of 100%.

In the case of `CCOP(=O)(SCC(=O)N1CCCCC1CC)SCc1ccc(Br)cc1` (centres unmarked) [Compound 57], the Mortality in data set [4] came out at 91.0%.

As to `CCOP(=O)(SCC)SCC(=O)N1CCC(C)CC1` (centres unmarked) [Compound 100], the “Herbicidal effects, broad-leaved weeds” value in [1] (10 g/a), in [1] (20 g/a) and in [1] (40 g/a) was 5 each time. Further, the “Herbicidal effect, radish” value in data set [2] (10 g./a.) was 0; in data set [2] (20 g./a.), 0; in data set [2] (40 g./a.), 1. Moreover, the “Herbicidal effects, barnyard grass” value in data set [3] (10 g/a), in [3] (20 g/a) and in [3] (40 g/a) was 5 in each case. Besides, the “Herbicidal effect, common lambsquarter” value turned out to be 3 in [5] (10 g./a.), 4 in [5] (20 g./a.) and 5 in data set [5] (40 g./a.). Also, the “Herbicidal effect, redroot pigweed” value in data set [6] (10 g./a.) was determined as 4; in data set [6] (20 g./a.), 4; in [6] (40 g./a.) it was 5. For the same compound, the “Herbicidal effect, large crabgrass” value in data set [7] (10 g./a.), in data set [7] (20 g./a.) and in [7] (40 g./a.) was 5 in each case. Also, the “Herbicidal effect, barnyard grass” value in data set [8] (10 g./a.) is 4; in [8] (20 g./a.) it was 5; in data set [8] (40 g./a.) it was 5. Further, the Phytotoxicity on rice in data set [9] (10 g/a), in data set [9] (20 g/a) and in [9] (40 g/a) was 0 throughout. Further, the “Herbicidal effect, common purslane” value in [10] (10 g./a.) amounted to 3; in data set [10] (20 g./a.), 4; in [10] (40 g./a.), 5.

In data set [4], `ClC=CCCl` [Dichloropropene, reference compound] had a Mortality of 79.3%.
